Data published in the supplement of paper PMC10307832.

What was measured:
Test in all cases: relative viability (nuclei count vs DMSO), 5 days (fraction); higher = more cells survive
[1] = tested on: BEN
Summary of the method: (§1)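 Lung cancer cell lines in 1536-well plates got either a single drug or a fixed anchor-drug dose together with five library-drug doses (not always all listed) in √10 steps, by pin tool, on the day after seeding. Nuclei were counted after 5 days, and relative viability is the treated-to-vehicle ratio of nuclei counts. Values are medians of duplicate plates.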

[2] = tested on: EKVX
Summary of the method: as §1

[3] = tested on: HARA
Summary of the method: as §1

[4] = tested on: HCC-366
Summary of the method: as §1

[5] = tested on: HCC-827
Summary of the method: as §1

[6] = tested on: LOU-NH91
Summary of the method: as §1

[7] = tested on: NCI-H1355
Summary of the method: as §1

[8] = tested on: NCI-H1437
Summary of the method: as §1

[9] = tested on: NCI-H1734
Summary of the method: as §1

[10] = tested on: NCI-H1792
Summary of the method: as §1

[11] = tested on: NCI-H1993
Summary of the method: as §1

[12] = tested on: NCI-H2009
Summary of the method: as §1

[13] = tested on: NCI-H2087
Summary of the method: as §1

[14] = tested on: NCI-H2405
Summary of the method: as §1

[15] = tested on: NCI-H647
Summary of the method: as §1

[16] = tested on: NCI-H661
Summary of the method: as §1

[17] = tested on: SK-LU-1
Summary of the method: as §1

Compound: Cc1sc2c(c1C)C(c1ccc(Cl)cc1)=N[C@@H](CC(=O)OC(C)(C)C)c1nnc(C)n1-2 [JQ1] + CC(C)C[C@H](NC(=O)[C@H](Cc1ccccc1)NC(=O)c1cnccn1)B(O)O [Bortezomib] (partner 0.002 µM)
- relative viability ([1]; first compound 0.04 µM): 0.627
- relative viability ([1]; first compound 0.1265 µM): 0.605
- relative viability ([1]; first compound 0.4 µM): 0.463
- relative viability ([1]; first compound 1.265 µM): 0.322
- relative viability ([1]; first compound 4 µM): 0.221
- relative viability ([2]; first compound 0.04 µM): 0.981
- relative viability ([2]; first compound 0.1265 µM): 0.842
- relative viability ([2]; first compound 0.4 µM): 1.16
- relative viability ([2]; first compound 1.265 µM): 0.749
- relative viability ([2]; first compound 4 µM): 0.704
- relative viability ([3]; first compound 0.04 µM): 1.08
- relative viability ([3]; first compound 0.1265 µM): 0.725
- relative viability ([3]; first compound 0.4 µM): 0.611
- relative viability ([3]; first compound 1.265 µM): 0.433
- relative viability ([3]; first compound 4 µM): 0.173
- relative viability ([4]; first compound 0.04 µM): 1.08
- relative viability ([4]; first compound 0.4 µM): 1.03
- relative viability ([4]; first compound 1.265 µM): 0.585
- relative viability ([4]; first compound 4 µM): 0.23
- relative viability ([5]; first compound 0.04 µM): 0.929
- relative viability ([5]; first compound 0.4 µM): 0.743
- relative viability ([5]; first compound 1.265 µM): 1.25
- relative viability ([5]; first compound 4 µM): 0.928
- relative viability ([6]; first compound 0.04 µM): 0.525
- relative viability ([6]; first compound 0.1265 µM): 0.476
- relative viability ([6]; first compound 0.4 µM): 0.428
- relative viability ([6]; first compound 1.265 µM): 0.3
- relative viability ([6]; first compound 4 µM): 0.327
- relative viability ([7]; first compound 0.04 µM): 1.17
- relative viability ([7]; first compound 0.1265 µM): 1.07
- relative viability ([7]; first compound 0.4 µM): 1.05
- relative viability ([7]; first compound 1.265 µM): 0.86
- relative viability ([7]; first compound 4 µM): 0.669
- relative viability ([8]; first compound 0.04 µM): 0.42
- relative viability ([8]; first compound 0.1265 µM): 0.369
- relative viability ([8]; first compound 0.4 µM): 0.276
- relative viability ([8]; first compound 1.265 µM): 0.228
- relative viability ([8]; first compound 4 µM): 0.194
- relative viability ([9]; first compound 0.04 µM): 0.967
- relative viability ([9]; first compound 0.1265 µM): 0.788
- relative viability ([9]; first compound 0.4 µM): 0.878
- relative viability ([9]; first compound 1.265 µM): 0.597
- relative viability ([9]; first compound 4 µM): 0.474
- relative viability ([10]; first compound 0.04 µM): 0.953
- relative viability ([10]; first compound 0.4 µM): 0.895
- relative viability ([10]; first compound 1.265 µM): 0.657
- relative viability ([10]; first compound 4 µM): 0.456
- relative viability ([11]; first compound 0.04 µM): 1.08
- relative viability ([11]; first compound 0.1265 µM): 1.13
- relative viability ([11]; first compound 0.4 µM): 1.04
- relative viability ([11]; first compound 1.265 µM): 0.738
- relative viability ([11]; first compound 4 µM): 0.458
- relative viability ([12]; first compound 0.04 µM): 0.947
- relative viability ([12]; first compound 0.1265 µM): 0.526
- relative viability ([12]; first compound 0.4 µM): 0.262
- relative viability ([12]; first compound 1.265 µM): 0.172
- relative viability ([12]; first compound 4 µM): 0.197
- relative viability ([13]; first compound 0.04 µM): 0.832
- relative viability ([13]; first compound 0.4 µM): 0.943
- relative viability ([13]; first compound 1.265 µM): 0.553
- relative viability ([13]; first compound 4 µM): 0.416
- relative viability ([14]; first compound 0.04 µM): 1.07
- relative viability ([14]; first compound 0.1265 µM): 0.628
- relative viability ([14]; first compound 0.4 µM): 1.03
- relative viability ([14]; first compound 1.265 µM): 0.827
- relative viability ([14]; first compound 4 µM): 0.678
- relative viability ([15]; first compound 0.04 µM): 0.678
- relative viability ([15]; first compound 0.1265 µM): 0.521
- relative viability ([15]; first compound 0.4 µM): 0.346
- relative viability ([15]; first compound 1.265 µM): 0.0716
- relative viability ([15]; first compound 4 µM): 0.102
- relative viability ([16]; first compound 0.04 µM): 0.783
- relative viability ([16]; first compound 0.1265 µM): 0.83
- relative viability ([16]; first compound 0.4 µM): 0.576
- relative viability ([16]; first compound 1.265 µM): 0.431
- relative viability ([16]; first compound 4 µM): 0.537
- relative viability ([17]; first compound 0.04 µM): 1.37
- relative viability ([17]; first compound 0.1265 µM): 0.693
- relative viability ([17]; first compound 0.4 µM): 0.941
- relative viability ([17]; first compound 1.265 µM): 0.28
- relative viability ([17]; first compound 4 µM): 0.205

Compound: COc1cc2nccc(Oc3ccc(NC(=O)Nc4cc(C)on4)c(Cl)c3)c2cc1OC [Tivozanib] + CC(C)C[C@H](NC(=O)[C@H](Cc1ccccc1)NC(=O)c1cnccn1)B(O)O [Bortezomib] (partner 0.002 µM)
- relative viability ([1]; first compound 0.005 µM): 0.703
- relative viability ([1]; first compound 0.01581 µM): 0.847
- relative viability ([1]; first compound 0.05 µM): 0.873
- relative viability ([1]; first compound 0.5 µM): 0.86
- relative viability ([2]; first compound 0.005 µM): 0.95
- relative viability ([2]; first compound 0.01581 µM): 0.924
- relative viability ([2]; first compound 0.05 µM): 1.11
- relative viability ([2]; first compound 0.1581 µM): 0.987
- relative viability ([2]; first compound 0.5 µM): 1.02
- relative viability ([3]; first compound 0.005 µM): 1.03
- relative viability ([3]; first compound 0.01581 µM): 1.18
- relative viability ([3]; first compound 0.05 µM): 1.08
- relative viability ([3]; first compound 0.1581 µM): 1.27
- relative viability ([3]; first compound 0.5 µM): 1.14
- relative viability ([4]; first compound 0.005 µM): 1.01
- relative viability ([4]; first compound 0.01581 µM): 1.05
- relative viability ([4]; first compound 0.05 µM): 1.06
- relative viability ([4]; first compound 0.1581 µM): 1.05
- relative viability ([4]; first compound 0.5 µM): 1.05
- relative viability ([5]; first compound 0.005 µM): 0.981
- relative viability ([5]; first compound 0.01581 µM): 1.01
- relative viability ([5]; first compound 0.05 µM): 1.13
- relative viability ([5]; first compound 0.1581 µM): 1.08
- relative viability ([5]; first compound 0.5 µM): 1.03
- relative viability ([6]; first compound 0.005 µM): 0.5
- relative viability ([6]; first compound 0.01581 µM): 0.489
- relative viability ([6]; first compound 0.05 µM): 0.722
- relative viability ([6]; first compound 0.1581 µM): 0.561
- relative viability ([6]; first compound 0.5 µM): 0.499
- relative viability ([7]; first compound 0.005 µM): 1.09
- relative viability ([7]; first compound 0.01581 µM): 1.17
- relative viability ([7]; first compound 0.05 µM): 1.26
- relative viability ([7]; first compound 0.5 µM): 1.14
- relative viability ([8]; first compound 0.005 µM): 0.487
- relative viability ([8]; first compound 0.01581 µM): 0.558
- relative viability ([8]; first compound 0.05 µM): 0.523
- relative viability ([8]; first compound 0.1581 µM): 0.508
- relative viability ([8]; first compound 0.5 µM): 0.399
- relative viability ([9]; first compound 0.005 µM): 0.757
- relative viability ([9]; first compound 0.01581 µM): 0.904
- relative viability ([9]; first compound 0.05 µM): 1.01
- relative viability ([9]; first compound 0.1581 µM): 0.677
- relative viability ([9]; first compound 0.5 µM): 0.854
- relative viability ([10]; first compound 0.005 µM): 0.961
- relative viability ([10]; first compound 0.01581 µM): 0.967
- relative viability ([10]; first compound 0.05 µM): 0.965
- relative viability ([10]; first compound 0.1581 µM): 0.989
- relative viability ([10]; first compound 0.5 µM): 0.947
- relative viability ([11]; first compound 0.005 µM): 0.981
- relative viability ([11]; first compound 0.01581 µM): 1.02
- relative viability ([11]; first compound 0.05 µM): 1.39
- relative viability ([11]; first compound 0.1581 µM): 0.647
- relative viability ([11]; first compound 0.5 µM): 1.13
- relative viability ([12]; first compound 0.005 µM): 0.945
- relative viability ([12]; first compound 0.01581 µM): 1.02
- relative viability ([12]; first compound 0.05 µM): 1.04
- relative viability ([12]; first compound 0.1581 µM): 1.04
- relative viability ([12]; first compound 0.5 µM): 0.732
- relative viability ([13]; first compound 0.005 µM): 0.644
- relative viability ([13]; first compound 0.01581 µM): 0.919
- relative viability ([13]; first compound 0.05 µM): 0.842
- relative viability ([13]; first compound 0.1581 µM): 0.77
- relative viability ([13]; first compound 0.5 µM): 0.739
- relative viability ([14]; first compound 0.005 µM): 0.87
- relative viability ([14]; first compound 0.01581 µM): 1.01
- relative viability ([14]; first compound 0.05 µM): 1.05
- relative viability ([14]; first compound 0.1581 µM): 1.02
- relative viability ([14]; first compound 0.5 µM): 0.886
- relative viability ([15]; first compound 0.005 µM): 0.953
- relative viability ([15]; first compound 0.01581 µM): 0.886
- relative viability ([15]; first compound 0.05 µM): 1.05
- relative viability ([15]; first compound 0.1581 µM): 0.941
- relative viability ([15]; first compound 0.5 µM): 0.957
- relative viability ([16]; first compound 0.005 µM): 0.682
- relative viability ([16]; first compound 0.01581 µM): 0.818
- relative viability ([16]; first compound 0.05 µM): 0.753
- relative viability ([16]; first compound 0.1581 µM): 0.717
- relative viability ([16]; first compound 0.5 µM): 0.85
- relative viability ([17]; first compound 0.005 µM): 0.931
- relative viability ([17]; first compound 0.01581 µM): 1.26
- relative viability ([17]; first compound 0.05 µM): 1.2
- relative viability ([17]; first compound 0.1581 µM): 0.784
- relative viability ([17]; first compound 0.5 µM): 0.907
